Test results: patent publication US8048862B2, “Macrocyclic inhibitors of hepatitis C virus replication” (priority 2008, dated 2011)

Key:
[1] = target: NS3/NS4 complexes (Hepatitis C virus genotype 1a, UniProt P27958); assay: NS3/NS4 inhibition activity (IC50); format: biochemical; conditions: Table 2, read-out: IC50
Summary of the method: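 NS3/NS4 complexes were formed and compound inhibitory concentrations determined at ambient temperature (23 °C). The buffer contained 50 mM Tris-HCl pH 7.5, 15% glycerol, 0.6 mM LDAO, 25 μM NS4A peptide and 10 mM DTT.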

[2] = test system: hepatitis C replicon; assay: hepatitis C replicon EC50; format: cell-based; conditions: Hepatitis C virus; Table 2; hepatitis C replicon; read-out: EC50
Description: NS3-NS4 inhibition activity can be determined using known assay methods.

Sequence of NS3/NS4 complexes (P27958 1027-1657): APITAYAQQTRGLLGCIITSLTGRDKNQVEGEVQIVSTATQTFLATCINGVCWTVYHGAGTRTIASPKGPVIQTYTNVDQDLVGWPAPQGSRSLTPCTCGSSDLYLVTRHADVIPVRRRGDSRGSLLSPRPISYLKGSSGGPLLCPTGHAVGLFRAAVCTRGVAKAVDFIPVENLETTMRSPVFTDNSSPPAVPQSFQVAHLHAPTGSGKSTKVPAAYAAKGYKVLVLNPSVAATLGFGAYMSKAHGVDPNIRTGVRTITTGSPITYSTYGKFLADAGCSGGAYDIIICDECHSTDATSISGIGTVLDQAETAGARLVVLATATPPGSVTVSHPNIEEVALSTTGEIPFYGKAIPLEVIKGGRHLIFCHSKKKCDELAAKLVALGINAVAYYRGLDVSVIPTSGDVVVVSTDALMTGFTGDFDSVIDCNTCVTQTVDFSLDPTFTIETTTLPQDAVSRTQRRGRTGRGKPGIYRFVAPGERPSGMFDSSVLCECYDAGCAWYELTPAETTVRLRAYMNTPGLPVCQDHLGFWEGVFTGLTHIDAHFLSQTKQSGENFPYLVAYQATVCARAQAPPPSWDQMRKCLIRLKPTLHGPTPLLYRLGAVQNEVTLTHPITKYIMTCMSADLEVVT
Sequence of NS3/NS4 complexes (P27958 1658-1711): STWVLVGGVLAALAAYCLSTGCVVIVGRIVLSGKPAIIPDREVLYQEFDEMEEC

CC(C)n1c(O[C@@H]2C[C@H]3C(=O)N[C@]4(C(=O)NS(=O)(=O)C5CC5)C[C@H]4/C=C\CCCCC[C@H](Nc4cc(F)cc(C(F)(F)F)c4)C(=O)N3C2)nc2ccccc21 [Compound 393]
IC50 [1]: < 10 nM | EC50 [2]: 10 to 75 nM

CCn1c(O[C@@H]2C[C@H]3C(=O)N[C@]4(C(=O)NS(=O)(=O)C5(C)CC5)C[C@H]4/C=C\CCCCC[C@H](Nc4ccccc4)C(=O)N3C2)nc2ccccc21 [Compound 395]
IC50 [1]: < 10 nM | EC50 [2]: < 10 nM

CC1(S(=O)(=O)NC(=O)[C@@]23C[C@H]2/C=C\CCCCC[C@H](Nc2cc(F)cc(C(F)(F)F)c2)C(=O)N2C[C@H](Oc4nc(-c5ccccc5)cs4)C[C@H]2C(=O)N3)CC1 [Compound 396]
IC50 [1]: < 10 nM | EC50 [2]: > 500 nM

CC(C)(C)Cn1c(O[C@@H]2C[C@H]3C(=O)N[C@]4(C(=O)NS(=O)(=O)C5(C)CC5)C[C@H]4/C=C\CCCCC[C@H](Nc4cc(F)cc(C(F)(F)F)c4)C(=O)N3C2)nc2ccccc21 [Compound 401]
IC50 [1]: < 10 nM | EC50 [2]: 75 to 500 nM

CC(C)Cn1c(O[C@@H]2C[C@H]3C(=O)N[C@]4(C(=O)NS(=O)(=O)C5(C)CC5)C[C@H]4/C=C\CCCCC[C@H](Nc4cc(F)cc(C(F)(F)F)c4)C(=O)N3C2)nc2ccccc21 [Compound 402]
IC50 [1]: < 10 nM | EC50 [2]: 10 to 75 nM

COc1ccc2c(O[C@@H]3C[C@H]4C(=O)N[C@]5(C(=O)NS(=O)(=O)C6CC6)C[C@H]5/C=C\CCCCC[C@H](Nc5ccccc5)C(=O)N4C3)cc(-c3nc(C(C)C)cs3)nc2c1C [Compound 407]
IC50 [1]: < 10 nM | EC50 [2]: < 10 nM

COc1ccc2c(O[C@@H]3C[C@H]4C(=O)N[C@]5(C(=O)NS(=O)(=O)C6CC6)C[C@H]5/C=C\CCCCC[C@H](Nc5ccc(F)cc5)C(=O)N4C3)cc(-c3nc(C(C)C)cs3)nc2c1C [Compound 409]
IC50 [1]: < 10 nM | EC50 [2]: < 10 nM

COc1ccc2c(O[C@@H]3C[C@H]4C(=O)N[C@]5(C(=O)NS(=O)(=O)C6CC6)C[C@H]5/C=C\CCCCC[C@H](Nc5cccc(F)c5)C(=O)N4C3)cc(-c3nc(C(C)C)cs3)nc2c1C [Compound 411]
IC50 [1]: < 10 nM | EC50 [2]: < 10 nM

COc1ccc2c(O[C@@H]3C[C@H]4C(=O)N[C@]5(C(=O)NS(=O)(=O)N(C)C)C[C@H]5/C=C\CCCCC[C@H](Nc5ccccc5)C(=O)N4C3)cc(-c3nc(C(C)C)cs3)nc2c1C [Compound 412]
IC50 [1]: < 10 nM | EC50 [2]: < 10 nM

COc1ccc2c(O[C@@H]3C[C@H]4C(=O)N[C@]5(C(=O)NS(=O)(=O)N(C)C)C[C@H]5/C=C\CCCCC[C@H](Nc5ccc(F)cc5)C(=O)N4C3)cc(-c3nc(C(C)C)cs3)nc2c1C [Compound 415]
IC50 [1]: < 10 nM | EC50 [2]: < 10 nM

COc1ccc2c(O[C@@H]3C[C@H]4C(=O)N[C@]5(C(=O)NS(=O)(=O)N(C)C)C[C@H]5/C=C\CCCCC[C@H](Nc5cccc(F)c5)C(=O)N4C3)cc(-c3nc(C(C)C)cs3)nc2c1C [Compound 417]
IC50 [1]: < 10 nM | EC50 [2]: < 10 nM

COc1ccc2c(O[C@@H]3C[C@H]4C(=O)N[C@]5(C(=O)NS(=O)(=O)C6CC6)C[C@H]5/C=C\CCCCC[C@H](Nc5cc(F)cc(C(F)(F)F)c5)C(=O)N4C3)cc(-c3nc(C(C)C)cs3)nc2c1C [Compound 439]
IC50 [1]: < 10 nM | EC50 [2]: < 10 nM

CC1(S(=O)(=O)NC(=O)[C@@]23C[C@H]2/C=C\CCCCC[C@H](Nc2cccc(OC(F)(F)F)c2)C(=O)N2C[C@H](Oc4nccc5ccccc45)C[C@H]2C(=O)N3)CC1 [Compound 444]
IC50 [1]: < 10 nM | EC50 [2]: 10 to 75 nM

COc1ccc2c(O[C@@H]3C[C@H]4C(=O)N[C@]5(C(=O)NS(=O)(=O)C6(C)CC6)C[C@H]5/C=C\CCCCC[C@H](Nc5ccc(C(F)(F)F)cc5)C(=O)N4C3)cc(-c3nc(C(C)C)cs3)nc2c1C [Compound 445]
IC50 [1]: < 10 nM | EC50 [2]: < 10 nM

COc1ccc2c(O[C@@H]3C[C@H]4C(=O)N[C@]5(C(=O)NS(=O)(=O)C6CC6)C[C@H]5/C=C\CCCCC[C@H](Nc5ccc(C(F)(F)F)cc5)C(=O)N4C3)cc(-c3nc(C(C)C)cs3)nc2c1C [Compound 446]
IC50 [1]: < 10 nM | EC50 [2]: < 10 nM

COc1ccc2c(O[C@@H]3C[C@H]4C(=O)N[C@]5(C(=O)NS(=O)(=O)C6CC6)C[C@H]5/C=C\CCCCC[C@H](Nc5ccc(F)c(C(F)(F)F)c5)C(=O)N4C3)cc(-c3nc(C(C)C)cs3)nc2c1C [Compound 447]
IC50 [1]: < 10 nM | EC50 [2]: < 10 nM

COc1ccc2c(O[C@@H]3C[C@H]4C(=O)N[C@]5(C(=O)O)C[C@H]5/C=C\CCCCC[C@H](Nc5ccccc5)C(=O)N4C3)cc(-c3nc(C(C)C)cs3)nc2c1C [Compound 449]
IC50 [1]: < 10 nM | EC50 [2]: 10 to 75 nM

COc1ccc2c(O[C@@H]3C[C@H]4C(=O)N[C@]5(C(=O)NS(=O)(=O)N6CCCC6)C[C@H]5/C=C\CCCCC[C@H](Nc5ccccc5)C(=O)N4C3)cc(-c3nc(C(C)C)cs3)nc2c1C [Compound 455]
IC50 [1]: < 10 nM | EC50 [2]: < 10 nM

COc1ccc2c(O[C@@H]3C[C@H]4C(=O)N[C@]5(C(=O)NS(=O)(=O)N6CCCCC6)C[C@H]5/C=C\CCCCC[C@H](Nc5ccccc5)C(=O)N4C3)cc(-c3nc(C(C)C)cs3)nc2c1C [Compound 456]
IC50 [1]: < 10 nM | EC50 [2]: 10 to 75 nM

COc1ccc2c(O[C@@H]3C[C@H]4C(=O)N[C@]5(C(=O)NS(=O)(=O)N(C)C)C[C@H]5/C=C\CCCCC[C@H](Nc5cccc(C(F)(F)F)c5)C(=O)N4C3)cc(-c3nc(C(C)C)cs3)nc2c1C [Compound 457]
IC50 [1]: < 10 nM | EC50 [2]: < 10 nM

COc1ccc2c(O[C@@H]3C[C@H]4C(=O)N[C@]5(C(=O)NS(=O)(=O)N(C)C)C[C@H]5/C=C\CCCCC[C@H](Nc5ccc(C(F)(F)F)cc5)C(=O)N4C3)cc(-c3nc(C(C)C)cs3)nc2c1C [Compound 458]
IC50 [1]: < 10 nM | EC50 [2]: 10 to 75 nM

COc1ccc2c(O[C@@H]3C[C@H]4C(=O)N[C@]5(C(=O)NS(=O)(=O)N(C)C)C[C@H]5/C=C\CCCCC[C@H](Nc5ccc(F)c(C(F)(F)F)c5)C(=O)N4C3)cc(-c3nc(C(C)C)cs3)nc2c1C [Compound 459]
IC50 [1]: < 10 nM | EC50 [2]: < 10 nM

COc1ccc2c(O[C@@H]3C[C@H]4C(=O)N[C@]5(C(=O)NS(=O)(=O)N(C)C)C[C@H]5/C=C\CCCCC[C@H](Nc5cc(F)cc(C(F)(F)F)c5)C(=O)N4C3)cc(-c3nc(C(C)C)cs3)nc2c1C [Compound 460]
IC50 [1]: < 10 nM | EC50 [2]: < 10 nM

CC(C)n1c(O[C@@H]2C[C@H]3C(=O)N[C@]4(C(=O)NS(=O)(=O)C5(C)CC5)C[C@H]4/C=C\CCCCC[C@H](Nc4ccccc4)C(=O)N3C2)nc2ccc(F)cc21 [Compound 461]
IC50 [1]: < 10 nM | EC50 [2]: 10 to 75 nM

Cc1ccc2nc(O[C@@H]3C[C@H]4C(=O)N[C@]5(C(=O)NS(=O)(=O)C6(C)CC6)C[C@H]5/C=C\CCCCC[C@H](Nc5ccccc5)C(=O)N4C3)n(C(C)C)c2c1 [Compound 462]
IC50 [1]: < 10 nM | EC50 [2]: 10 to 75 nM

CC(C)n1c(O[C@@H]2C[C@H]3C(=O)N[C@]4(C(=O)NS(=O)(=O)C5(C)CC5)C[C@H]4CCCCCCC[C@H](Nc4cc(F)cc(C(F)(F)F)c4)C(=O)N3C2)nc2ccccc21 [Compound 465]
IC50 [1]: < 10 nM | EC50 [2]: 75 to 500 nM

CCn1c(O[C@@H]2C[C@H]3C(=O)N[C@]4(C(=O)NS(=O)(=O)C5(C)CC5)C[C@H]4CCCCCCC[C@H](Nc4cc(F)cc(C(F)(F)F)c4)C(=O)N3C2)nc2ccccc21 [Compound 466]
IC50 [1]: < 10 nM | EC50 [2]: 75 to 500 nM

CC(C)n1c(O[C@@H]2C[C@H]3C(=O)N[C@]4(C(=O)NS(=O)(=O)C5(C)CC5)C[C@H]4/C=C\CCCCC[C@H](Nc4ccccc4)C(=O)N3C2)nc2cccc(F)c21 [Compound 467]
IC50 [1]: < 10 nM | EC50 [2]: 10 to 75 nM

CC(C)n1c(O[C@@H]2C[C@H]3C(=O)N[C@]4(C(=O)NS(=O)(=O)C5(C)CC5)C[C@H]4/C=C\CCCCC[C@H](Nc4ccccc4)C(=O)N3C2)nc2cc(F)ccc21 [Compound 468]
IC50 [1]: < 10 nM | EC50 [2]: < 10 nM

CC(C)n1c(O[C@@H]2C[C@H]3C(=O)N[C@]4(C(=O)NS(=O)(=O)C5(C)CC5)C[C@H]4/C=C\CCCCC[C@H](Nc4ccccc4)C(=O)N3C2)nc2c(F)cccc21 [Compound 469]
IC50 [1]: < 10 nM | EC50 [2]: < 10 nM

Cc1ccc2c(c1)nc(O[C@@H]1C[C@H]3C(=O)N[C@]4(C(=O)NS(=O)(=O)C5(C)CC5)C[C@H]4/C=C\CCCCC[C@H](Nc4ccccc4)C(=O)N3C1)n2C(C)C [Compound 470]
IC50 [1]: < 10 nM | EC50 [2]: 10 to 75 nM

Cc1cccc2c1nc(O[C@@H]1C[C@H]3C(=O)N[C@]4(C(=O)NS(=O)(=O)C5(C)CC5)C[C@H]4/C=C\CCCCC[C@H](Nc4ccccc4)C(=O)N3C1)n2C(C)C [Compound 471]
IC50 [1]: < 10 nM | EC50 [2]: 10 to 75 nM

COc1ccc2c(O[C@@H]3C[C@H]4C(=O)N[C@]5(C(=O)NS(=O)(=O)C6(C)CC6)C[C@H]5/C=C\CCCCC[C@H](Nc5ccccc5C)C(=O)N4C3)cc(-c3nc(C(C)C)cs3)nc2c1C [Compound 472]
IC50 [1]: < 10 nM | EC50 [2]: 10 to 75 nM

COc1ccc2c(O[C@@H]3C[C@H]4C(=O)N[C@]5(C(=O)NS(=O)(=O)C6(C)CC6)C[C@H]5/C=C\CCCCC[C@H](Nc5ccc(F)c(F)c5)C(=O)N4C3)cc(-c3nc(C(C)C)cs3)nc2c1C [Compound 473]
IC50 [1]: < 10 nM | EC50 [2]: < 10 nM

CNC(=O)c1cccc(N[C@H]2CCCCC/C=C\[C@@H]3C[C@@]3(C(=O)NS(=O)(=O)C3(C)CC3)NC(=O)[C@@H]3C[C@@H](Oc4cc(-c5nc(C(C)C)cs5)nc5c(C)c(OC)ccc45)CN3C2=O)c1 [Compound 474]
IC50 [1]: < 10 nM | EC50 [2]: < 10 nM

COc1ccc2c(O[C@@H]3C[C@H]4C(=O)N[C@]5(C(=O)NS(=O)(=O)C6(C)CC6)C[C@H]5/C=C\CCCCC[C@H](Nc5cccc(NC(C)=O)c5)C(=O)N4C3)cc(-c3nc(C(C)C)cs3)nc2c1C [Compound 475]
IC50 [1]: < 10 nM | EC50 [2]: < 10 nM

COc1ccc2c(O[C@@H]3C[C@H]4C(=O)N[C@]5(C(=O)NS(=O)(=O)C6(C)CC6)C[C@H]5/C=C\CCCCC[C@H](Nc5cccc(C#N)c5)C(=O)N4C3)cc(-c3nc(C(C)C)cs3)nc2c1C [Compound 476]
IC50 [1]: < 10 nM | EC50 [2]: < 10 nM
